Data published in ChEMBL document CHEMBL6078693, “Move over COVID, Tuberculosis Is Once again the Leading Cause of Death from a Single Infectious Disease” (J Med Chem, 2024).
Converted amounts (≈) assume the structure as drawn.

How the values were obtained:
[1] = test system: Mycobacterium tuberculosis; test: Antimycobacterial activity against Mycobacterium tuberculosis H37Rv assessed as reduction in bacterial growth incubated for 7 days by resazurin dye based assay; type: functional; conditions: 168 h, time 7 day
[2] = test system: Mycobacterium tuberculosis; test: Antimycobacterial activity against Mycobacterium tuberculosis; type: functional, organism-based

Work on NC[C@H]1OB(O)c2c(OCCO)ccc(Cl)c21 [GANFEBOROLE] yielded an MIC [1] of 0.08 µM (≈ 0.0206 µg/mL) and an IC50 [2] of 200 nM.
